Results reported in patent US8338335B2, “Synergistic herbicidal composition containing fluroxypyr and penoxsulam, halosulfuron-methyl, imazamox or imazethapyr” (Dow Agrosciences, LLC, priority 2009, dated 2012).
“And” between values parts separate entries of the source, which are not always exact repeats. Identical values can stand only once.

Columns and labels:
[1] = system: Echinochloa crus-galli (ECHCG); barnyardgrass; test: Postemergence herbicidal activity of mixtures in the greenhouse, ECHCG; assay type: in vivo
Experimental: (§1) Seeds of the desired test plant species were planted in 80% mineral soil/20% grit planting mixture, which typically has a pH of 7.2 and an organic matter content of about 2.9 percent, in plastic pots with a surface area of 128 square centimeters (cm^2). The growing medium was steam sterilized. The plants were grown for 7-19 days in a greenhouse with an approximate 14-hour (h) photoperiod which was maintained at about 29° C. during the day and 26° C. during the night. Nutrients and water were added on a regular basis and supplemental lighting was provided with overhead metal halide 1000-Watt lamps as necessary. The plants were treated with postemergence foliar applications when they reached the third to fourth true leaf stage. All treatments were applied using a randomized complete block trial design, with 4 replications per treatment.
(§2) Treatments consisted of the compounds as listed in Tables 1, 3, 5 and 6, each compound applied alone and in combination. Formulated amounts of penoxsulam, halosulfuron-methyl, imazamox and fluoroxypyr-meptyl ester, were placed in 60 milliliter (mL) glass vials and dissolved in a volume of 60 mL of a water solution containing Agri-dex crop oil concentrate in a 1% volume per volume (v/v) ratio. Compound requirements are based upon a 12 mL application volume at a rate of 187 liters per hectare (L/ha). Spray solutions of the mixtures were prepared by adding the stock solutions to the appropriate amount of dilution solution to form 12 mL spray solution with active ingredients in single and two way combinations. Formulated compounds were applied to the plant material with an overhead Mandel track sprayer equipped with 8002E nozzles calibrated to deliver 187 L/ha at a spray height of 18 inches (43 centimeters (cm)) above average plant canopy.
(§3) The treated plants and control plants were placed in a greenhouse as described above and watered by sub-irrigation to prevent wash-off of the test compounds. Treatments were rated at 7 to 21 days after application (DAA) as compared to the untreated control plants. Visual weed control was scored on a scale of 0 to 100 percent where 0 corresponds to no injury and 100 corresponds to complete kill.
(§4) Colby's equation was used to determine the herbicidal effects expected from the mixtures (Colby, S. R. Calculation of the synergistic and antagonistic response of herbicide combinations. Weeds 1967, 15, 20-22).
(§5) The following equation was used to calculate the expected activity of mixtures containing two active ingredients, A and B: Expected=A+B−(A×B/100)

[2] = system: Plantago lanceolata, PLALA; narrow-leaved plantain; test: Postemergence herbicidal activity of mixtures in the field, PLALA; assay type: in vivo
Experimental: (§6) Field trials were conducted in rice and turf using standard herbicide small plot research methodology. Plots varied from 3×3 meter (m) to 3×10 m (width×length) with 4 replicates per treatment. The rice crop was grown using normal cultural practices for fertilization, seeding, watering, flooding and maintenance to ensure good growth of the crop and the weeds. The turf crop was a permanent established crop of centipedegrass that was grown and maintained under normal cultural practices for fertilization, watering, mowing and disease maintenance to ensure good growth of the crop and the weeds.
(§7) All treatments in the field trials were applied using a carbon dioxide (CO2) backpack sprayer calibrated to apply 187 L/ha spray volume. Commercially available products of penoxsulam and fluoroxypyr-meptyl were mixed in water at appropriately formulated product rates to achieve the desired rates based on a unit area of application (hectare) to achieve the desired rates as shown. Treatments were rated at 7 to 33 days after application as compared to the untreated control plants. Visual weed control was scored on a scale of 0 to 100 percent where 0 corresponds to no injury and 100 corresponds to complete kill. […]

[3] = system: Caperonia palustris, CNPPA; Texasweed; test: Postemergence herbicidal activity of mixtures in the field, CNPPA; assay type: in vivo
Experimental: as §6
All treatments in the field trials were applied using a carbon dioxide (CO2) backpack sprayer calibrated to apply 187 L/ha spray volume. Commercially available products of penoxsulam and fluoroxypyr-meptyl were mixed in water at appropriately formulated product rates to achieve the desired rates based on a unit area of application (hectare) to achieve the desired rates as shown. Treatments were rated at 7 to 33 days after application as compared to the untreated control plants. Visual weed control was scored on a scale of 0 to 100 percent where 0 corresponds to no injury and 100 corresponds to complete kill.
as §4, §5

[4] = system: Sesbania exaltata, SEBEX; Hemp sesbania; test: Postemergence herbicidal activity of mixtures in the field, SEBEX; assay type: in vivo
Experimental: as §6, §7

[5] = system: Scirpus juncoides (SCPJU); Japanese bulrush; test: Postemergence herbicidal activity of mixtures in the greenhouse, SCPJU; assay type: in vivo
Experimental: as §1
Treatments consisted of the compounds as listed in Tables 1, 3, 5 and 6, each compound applied alone and in combination. […]
(§8) The treated plants and control plants were placed in a greenhouse as described above and watered by sub-irrigation to prevent wash-off of the test compounds. […] Visual weed control was scored on a scale of 0 to 100 percent where 0 corresponds to no injury and 100 corresponds to complete kill. […]

Sunflower (HELAN) = test: Crop injury (safening) in the field, sunflower; assay type: in vivo, Helianthus annuus; conditions: Fluroxypyr-meptyl 100 g ae/ha alone
Centipedegrass (ERLOP) = test: Crop injury (safening) in the field, centipedegrass; assay type: in vivo, Eremochloa ophiuroides
Experimental: as §6, §7

[6] = system: Cyperus esculentus (CYPES); yellow nutsedge; test: Postemergence herbicidal activity of mixtures in the greenhouse, CYPES; assay type: in vivo; conditions: 21 DAA
Experimental: as §1, §2, §3, §4, §5

[7] = system: Leptochloa chinensis (LEFCH); Chinese sprangletop; test: Postemergence herbicidal activity of mixtures in the greenhouse, LEFCH; assay type: in vivo; conditions: 21 DAA
Experimental: as §1, §2, §8

[8] = system: Brachiaria platyphylla (BRAPP); broadleaf signalgrass; test: Postemergence herbicidal activity of mixtures in the greenhouse, BRAPP; assay type: in vivo; conditions: 21 DAA
Experimental: as §1, §2, §3, §4, §5

[9] = system: Leptochloa spp, LEFSS; sprangletop; test: Postemergence herbicidal activity of mixtures in the field, LEFSS; assay type: in vivo
Experimental: as §6
All treatments in the field trials were applied using a carbon dioxide (CO2) backpack sprayer calibrated to apply 187 L/ha spray volume. […] Treatments were rated at 7 to 33 days after application as compared to the untreated control plants. Visual weed control was scored on a scale of 0 to 100 percent where 0 corresponds to no injury and 100 corresponds to complete kill.
as §4, §5

[10] = system: Panicum dichotomiflorum, PANDI; fall panicum; test: Postemergence herbicidal activity of mixtures in the field, PANDI; assay type: in vivo
Experimental: as §6, §7

[11] = Fluroxypyr-meptyl 97 g ae/ha alone
[12] = Fluroxypyr-meptyl 290 g ae/ha alone
[13] = Fluroxypyr-meptyl 200 g ae/ha alone
[14] = Halosulfuron-methyl 4.4 g ai/ha alone
[15] = Halosulfuron-methyl 18 g ai/ha alone

Question: With `CCCCCCC(C)OC(=O)COc1nc(F)c(Cl)c(N)c1Cl` (centres unmarked) [Fluroxypyr-meptyl, fluoroxypyr-meptyl ester] as the molecule, how does the “% Control ECHCG Ob” value ([1]; Fluroxypyr-meptyl 50 g ae/ha alone, 21 DAA, Table 5) read?
Answer: 6%

Question: And the “% Control ECHCG Ob” value ([1]; Fluroxypyr-meptyl 50 g ae/ha alone, 21 DAA, Table 6)?
Answer: 1.3%

Question: And the “% Control ECHCG Ob” value ([1]; Fluroxypyr-meptyl 100 g ae/ha alone, 21 DAA, Table 5)?
Answer: 2%

Question: And the “% Control ECHCG Ob” value ([1]; Fluroxypyr-meptyl 100 g ae/ha alone, 21 DAA, Table 6)?
Answer: 4%

Question: And the “% Control ECHCG Ob” value ([1]; Fluroxypyr-meptyl 200 g ae/ha alone, 21 DAA, Table 5)?
Answer: 11%

Question: And the “% Control ECHCG Ob” value ([1]; Fluroxypyr-meptyl 200 g ae/ha alone, 21 DAA, Table 6)?
Answer: 6%

Question: What about the “% Control ECHCG Ob” value ([1]; Fluroxypyr-meptyl 340 g ae/ha alone, Table 1) of the same molecule?
Answer: 0%

Question: And the “% Control PLALA Ob” value ([2]; Fluroxypyr-meptyl 140 g ae/ha alone)?
Answer: 0%

Question: And the “% Control CNPPA Ob” value [3, 11]?
Answer: 45%

Question: What about the “% Control CNPPA Ob” value [3, 12] of the same molecule?
Answer: 60%

Question: What about the “% Control SEBEX Ob” value [4, 11] of the same molecule?
Answer: 57%

Question: And the “% Control SCPJU Ob” value ([5]; Fluroxypyr-meptyl 70 g ae/ha alone)?
Answer: 60%

Question: And the “% Injury HELAN Ob” value (Sunflower (HELAN))?
Answer: 31% and 34%

Question: What about the “% Injury ERLOP Ob” value (Centipedegrass (ERLOP); Fluroxypyr-meptyl 210 g ae/ha alone, field) of the same molecule?
Answer: 6%

Question: And the “% Control CYPES Ob” value ([6]; Fluroxypyr-meptyl 50 g ae/ha alone, Table 5)?
Answer: 1%

Question: And the “% Control CYPES Ob” value ([6]; Fluroxypyr-meptyl 100 g ae/ha alone, Table 5)?
Answer: 3%

Question: What about the “% Control CYPES Ob” value ([6]; Fluroxypyr-meptyl 100 g ae/ha alone, Table 6) of the same molecule?
Answer: 10%

Question: What about the “% Control CYPES Ob” value ([6]; Fluroxypyr-meptyl 200 g ae/ha alone, Table 5) of the same molecule?
Answer: 8%

Question: And the “% Control CYPES Ob” value ([6]; Fluroxypyr-meptyl 200 g ae/ha alone, Table 6)?
Answer: 9%

Question: What about the “% Control LEFCH Ob” value [7, 13] of the same molecule?
Answer: 15%

Question: What about the “% Control BRAPP Ob” value ([8]; Fluroxypyr-meptyl 50 g ae/ha alone) of the same molecule?
Answer: 10%

Question: And the “% Control BRAPP Ob” value ([8]; Fluroxypyr-meptyl 100 g ae/ha alone)?
Answer: 23%

Question: What about the “% Control BRAPP Ob” value [8, 13] of the same molecule?
Answer: 20%

Question: And the “% Control LEFSS Ob” value [9, 12]?
Answer: 0%

Question: What about the “% Control PANDI Ob” value [10, 12] of the same molecule?
Answer: 0%

Question: How did the “% Control ECHCG Ob” value ([1]; Halosulfuron-methyl 8.8 g ai/ha alone, 21 DAA) turn out when `COC(=O)c1c(Cl)nn(C)c1S(=O)(=O)NC(=O)Nc1nc(OC)cc(OC)n1` [Halosulfuron-methyl, methyl 3-chloro-5-[[[[(4,6-dimethoxy-2-pyrimidinyl)amino]carbonyl]amino]sulfonyl]-1-methyl-1H-pyrazole-4-carboxylate] was run?
Answer: 3%

Question: And the “% Control ECHCG Ob” value ([1]; Halosulfuron-methyl 18 g ai/ha alone, 21 DAA)?
Answer: 6%

Question: What about the “% Control CYPES Ob” value [6, 14] of the same molecule?
Answer: 68%

Question: And the “% Control CYPES Ob” value ([6]; Halosulfuron-methyl 8.8 g ai/ha alone)?
Answer: 73%

Question: And the “% Control CYPES Ob” value [6, 15]?
Answer: 78%

Question: What about the “% Control LEFCH Ob” value [7, 14] of the same molecule?
Answer: 2%

Question: And the “% Control LEFCH Ob” value [7, 15]?
Answer: 8%

Question: Which “% Control ECHCG Ob” value ([1]; Imazamox 4.4 g ai/ha alone, 21 DAA) does the source give for `COCc1cnc(C2=NC(C)(C(C)C)C(=O)N2)c(C(=O)O)c1` (centres unmarked) [Imazamox, 2-[4,5-dihydro-4-methyl-4-(1-methylethyl)-5-oxo-1H-imidazol-2-yl]-5-(methoxymethyl)-3-pyridinecarboxylic acid] here?
Answer: 1.3%

Question: What about the “% Control ECHCG Ob” value ([1]; Imazamox 8.8 g ai/ha alone, 21 DAA) of the same molecule?
Answer: 29%

Question: And the “% Control ECHCG Ob” value ([1]; Imazamox 18 g ai/ha alone, 21 DAA)?
Answer: 85%

Question: And the “% Control CYPES Ob” value ([6]; Imazamox 8.8 g ai/ha alone)?
Answer: 8%

Question: And the “% Control CYPES Ob” value ([6]; Imazamox 18 g ai/ha alone)?
Answer: 42%

Question: And the “% Control BRAPP Ob” value ([8]; Imazamox 4.4 g ai/ha alone)?
Answer: 3%

Question: What about the “% Control BRAPP Ob” value ([8]; Imazamox 8.8 g ai/ha alone) of the same molecule?
Answer: 46%

Question: How did the “% Control LEFSS Ob” value ([9]; Imazethapyr 70 g ai/ha alone) turn out when `CCc1cnc(C2=NC(C)(C(C)C)C(=O)N2)c(C(=O)O)c1` (centres unmarked) [Imazethapyr, 2-[4,5-dihydro-4-methyl-4-(1-methylethyl)-5-oxo-1H-imidazol-2-yl]-5-ethyl-3-pyridinecarboxylic acid] was run?
Answer: 28%

Question: And the “% Control PANDI Ob” value ([10]; Imazethapyr 70 g ai/ha alone)?
Answer: 40%

Question: For `COc1cnc(OC)n2nc(NS(=O)(=O)c3c(OCC(F)F)cccc3C(F)(F)F)nc12` [Penoxsulam, 2-(2,2-difluoroethoxy)-N-(5,8-dimethoxy-[1,2,4]triazolo[1,5-c]pyrimidin-2-yl)-6-(trifluoromethyl)benzenesulfonamide], which “% Control ECHCG Ob” value ([1]; Penoxsulam 15 g ai/ha alone) is on record?
Answer: 84% and 78% and 62%

Question: What about the “% Control PLALA Ob” value ([2]; Penoxsulam 15 g ai/ha alone) of the same molecule?
Answer: 13%

Question: And the “% Control CNPPA Ob” value ([3]; Penoxsulam 35 g ai/ha alone)?
Answer: 67%

Question: What about the “% Control SEBEX Ob” value ([4]; Penoxsulam 22 g ai/ha alone) of the same molecule?
Answer: 76%

Question: What about the “% Control SCPJU Ob” value ([5]; Penoxsulam 10 g ai/ha alone) of the same molecule?
Answer: 2%

Question: What about the “% Injury ERLOP Ob” value (Centipedegrass (ERLOP); in vivo) of the same molecule?
Answer: 15%
